Tests used:
[1] = target: Aspergillus awamori glucoamylase (Aspergillus awamori, UniProt P69327); settings: Sierks and Svensson, 1993, cited from earlier work
[2] = target: T1, Thielavia terrestris ATCC 20627 glucoamylase, wild type, recombinant (expressed in Aspergillus oryzae), SEQ ID NO:2 (Thermothielavioides terrestris, UniProt G2QUZ8); experiment: Catalytic constants of recombinant Thielavia terrestris glucoamylase, maltotriose hydrolysis (glucose oxidase assay); format: biochemical
T1 construct: N-terminus identical to native enzyme
Procedure: The glucose-releasing activity of glucoamylase (on maltooligosaccharide) was measured using a glucose oxidase assay kit (Sigma Chemical Co., St. Louis, Mo.) according to the manufacturer's instructions. […] To obtain the correct glucoamylase activity, glucoamylase samples were subjected to ultrafiltration and the resulting retentate (glucoamylase enriched) and filtrate (containing no glucoamylase) were assayed by the glucose oxidase kit. The background substrate oxidation was then subtracted from the data obtained for the glucoamylase samples. Another glucoamylase activity assay comprised of glucoamylase hydrolysis on maltose and glucose detection by a Glucose GOD-Perid kit (Boehringer Mannheim, Indianapolis, Ind.) according to the manufacturer's instructions. In this assay, 900 µl of 50 mM sodium acetate, pH 4.3, containing 1% maltose, pre-incubated for 5 minutes at 37° C., was mixed with 20 μl of glucoamylase solution in 50 mM sodium acetate pH 4.3. After a 10 minute incubation, 80 μl of 1 M NaOH was added to inactivate glucoamylase and the mixture was chilled on ice to prevent the non-enzymatic, basic hydrolysis of maltose. A 20 μl volume of the solution was then mixed with 200 μl of GOD-Perid solution. After a 30 minute incubation at room temperature, the absorbance at 650 nm was measured. The Prism program (from GraphPad, San Diego, Calif.) was used to calculate Km and Vmax by non-linear regression. The parameter kcat (mole glucose produced per mole glucoamylase per min) was calculated by kcat ={(Vmax +1.01)/0.30}/[enzyme], where the units were 0.001 Abs /minute for Vmax and μM for [enzyme]. The 124 mM^-1 cm^-1 value, calculated from the amount of tyrosine, phenylalanine, and cysteine as deduced from the DNA sequence, was used for the extinction coefficient of Thielavia terrestris glucoamylase at 280 nm.
Then 50 μl of Sigma's GO glucose oxidase assay reagent and 25 μl of H2 O were added and the absorption change was monitored at 490 nm.
The temperature-activity profile was measured in quadruplicate at 4, 22, 30, 37, 50, 60, 70, and 80° C. […] After 30 minutes, 5 μl Thielavia terrestris glucoamylase stock (0.11 mg/ml) was added and the solution was kept at the same temperature. After 20 minutes, the solutions were chilled (in ice-water) and briefly centrifuged (in 0.7-ml microcentrifuge tubes). Then 25 μl of these solutions were subjected to the glucoamylase assay by mixing with 50 μl of glucose oxidase reagent and 25 μl of H2 O as described above.

[3] = test system: Trichoderma reesei glucoamylase; settings: Fagerstrom and Kalkkinen, 1995, cited from earlier work
[4] = test system: Aspergillus spp K-27 glucoamylase; settings: Abe et al., 1990, cited from earlier work

T1 sequence (G2QUZ8 20-638): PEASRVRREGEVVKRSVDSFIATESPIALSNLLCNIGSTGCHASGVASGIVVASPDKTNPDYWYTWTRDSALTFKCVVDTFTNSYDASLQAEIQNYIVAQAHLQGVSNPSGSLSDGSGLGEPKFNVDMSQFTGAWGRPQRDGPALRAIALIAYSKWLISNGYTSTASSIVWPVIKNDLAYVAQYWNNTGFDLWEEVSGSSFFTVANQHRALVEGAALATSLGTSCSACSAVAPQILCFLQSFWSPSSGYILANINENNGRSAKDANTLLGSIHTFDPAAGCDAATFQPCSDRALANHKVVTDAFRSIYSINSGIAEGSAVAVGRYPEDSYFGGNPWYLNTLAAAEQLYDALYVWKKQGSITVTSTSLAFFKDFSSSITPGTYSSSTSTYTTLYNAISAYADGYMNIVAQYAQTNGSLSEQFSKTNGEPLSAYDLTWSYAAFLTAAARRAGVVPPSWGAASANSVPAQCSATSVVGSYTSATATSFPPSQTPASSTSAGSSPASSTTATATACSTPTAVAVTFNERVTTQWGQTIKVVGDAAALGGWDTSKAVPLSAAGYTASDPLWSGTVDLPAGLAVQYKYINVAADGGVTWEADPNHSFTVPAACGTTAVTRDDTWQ
Sequence of Aspergillus awamori glucoamylase (P69327 25-640): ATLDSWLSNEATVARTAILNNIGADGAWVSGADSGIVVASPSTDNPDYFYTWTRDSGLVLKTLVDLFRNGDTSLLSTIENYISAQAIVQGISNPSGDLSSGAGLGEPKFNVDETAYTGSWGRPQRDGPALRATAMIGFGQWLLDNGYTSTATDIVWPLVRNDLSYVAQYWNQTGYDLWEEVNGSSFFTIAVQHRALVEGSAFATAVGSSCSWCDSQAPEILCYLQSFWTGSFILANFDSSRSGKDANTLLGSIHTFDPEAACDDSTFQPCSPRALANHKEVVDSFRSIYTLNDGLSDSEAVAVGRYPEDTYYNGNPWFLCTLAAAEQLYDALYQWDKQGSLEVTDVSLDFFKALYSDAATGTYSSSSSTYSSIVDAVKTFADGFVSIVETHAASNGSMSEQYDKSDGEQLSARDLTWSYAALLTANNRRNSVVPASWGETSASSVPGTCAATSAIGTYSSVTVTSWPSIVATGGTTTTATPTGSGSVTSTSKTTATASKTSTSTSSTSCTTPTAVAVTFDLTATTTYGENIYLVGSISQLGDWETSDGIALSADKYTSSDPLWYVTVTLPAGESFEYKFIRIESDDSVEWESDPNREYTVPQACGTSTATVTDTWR

For `OC[C@H]1O[C@H](O[C@H]2[C@H](O)[C@@H](O)[C@@H](O[C@H]3[C@H](O)[C@@H](O)C(O)O[C@@H]3CO)O[C@@H]2CO)[C@H](O)[C@@H](O)[C@@H]1O` (stereo partly shown) [maltotriose], the kcat ([1]; maltotriose) is listed as 61.67 s⁻¹, the Km ([1]; read-out: Km for maltotriose) is listed as 730 µM and the Km ([2]; at pH 4 from 4° C. to 80° C.) is listed as less than 1000 µM. For the same compound, the kcat ([2]; at pH 4 from 40° C. to 70° C.) was > 10^5 /min, the kcat ([2]; from pH 3 to 7 at 20° C.) was > 10^5 /min and the Km ([2]; from pH 3 to 11 at 20° C.) was less than 1000 µM. The kcat ([3]; maltotriose) was 20 s⁻¹, the Km ([3]; read-out: Km for maltotriose) was 500 µM and the kcat ([4]; maltotriose) was 65 s⁻¹. For the same compound, the Km ([4]; read-out: Km for maltotriose) was 450 µM.
